For 18 compounds, melting point results are on record in US20020072606A1, “Chemokine receptor antagonists” (Warner-Lambert Company, priority 1999, published 2002).

Structures can show the parent of a compound that is named as a salt.

On to `C[C@@]12CC3CC(N)/C(=C/c4ccccc4)CC3CN1CCc1c2[nH]c2ccccc12` (stereo in doubt) (as salt: trifluoroacetic acid salt) [Example 28, 3-Benzylidene-13b-methyl-1,2,3,4,4a,5,7,8,13,13b,14,14a-dodecahydro-indolo[2′,3′: 3,4]pyrido[1,2-b]isoquinolin-2-ylamine], for which the melting point was in the range of 203 to 210 °C. Then `CCCC[C@@]12CC3C[C@H](O)CCC3CN1CCc1c2[nH]c2ccccc12` (stereo partly drawn) [Example 1, [2R-(2α,4aα,13β,14aβ)]-13b-Butyl-1,2,3,4,4a,5,7,8,13,13b,14,14a-dodecahydro-indolo[2′,3′:3,4]pyrido[1,2-b]isoquinolin-2-ol], with 235 °C (dec.); and `C=CC[C@@]12CC3C[C@H](O)CCC3CN1CCc1c2[nH]c2ccccc12` (stereo partly drawn) [Example 2, [2R-(2α,4aα, 13β,14aβ)]-13b-Allyl-1,2,3,4,4a,5,7,8,13,13b,14,14a-dodecahydro-indolo[2′,3′:3,4]pyrido[1,2-b]isoquinolin-2-ol], with 228 to 230 °C; and `CCC[C@@]12CC3C[C@H](O)CCC3CN1CCc1c2[nH]c2ccccc12` (stereo partly drawn) [Example 3, [2R-(2α,4aα,13β,14aβ)]-13b-Propyl-1,2,3,4,4a,5,7,8,13,13b,14,14a-dodecahydro-indolo[2′,3′:3,4]pyrido[1,2-b]isoquinolin-2-ol], with 195 °C (dec.). On to `C=CC[C@@]12CC3CC(=O)CCC3CN1CCc1c2[nH]c2ccccc12` (stereo partly drawn) [Example 5, [2R-(2α,4aα,13β,14aβ)]-13b-Allyl-3,4,4a,5,7,8,13,13b,14,14a-decahydro-1H-indolo[2′,3′:3,4]pyrido[1,2-b]isoquinolin-2-one], for which the melting point was 220 to 223 °C. Under `CCC[C@@]12CC3CC(=O)CCC3CN1CCc1c2[nH]c2ccccc12` (stereo partly drawn) [Example 6, [2R-(2α,4aα, 13β, 14aβ)]-13b-Propyl-3,4,4a,5,7,8,13,13b,14,14a-decahydro-1H-indolo[2′,3′;3,4]pyrido[1,2-b]isoquinolin-2-one] stands 255 °C (dec.). On to `C=CC[C@@]12CC3C[C@H](O)/C(=C/c4ccccc4)CC3CN1CCc1c2[nH]c2ccccc12` (stereo partly drawn) [Example 10, [2S-(2α,4aα,13β,14aα)]-13b-Allyl-3-benzylidene-1,2,3,4,4a,5,7,8,13,13b,14,14a-dodecahydro-indolo[2′,3′:3,4]pyrido[1,2-b]isoquinolin-2-ol], for which the melting point fell in the range of 211 to 213 °C. Take `CCC[C@@]12CC3C[C@H](O)/C(=C/c4ccccc4)CC3CN1CCc1c2[nH]c2ccccc12` (stereo partly drawn) [Example 11, [2S-(2α,4aα,13β, 14aβ)]-3-Benzylidine-13b-propyl-1,2,3,4,4a,5,7,8,13,13b,14,14a-dodecahydro-indolo[2′,3′:3,4]pyrido[1,2-b]-isoquinolin-2-ol]: the melting point lay in the range of 224 to 226 °C.

In turn, `CCCC[C@@]12CC3C[C@H](O)/C(=C/c4ccccc4)CC3CN1CCc1c2[nH]c2ccccc12` (stereo partly drawn) [Example 12, [2S-(2α,4aα,13β,14aβ)]-3-Benzylidine-13b-butyl-1,2,3,4,4a,5,7,8,13,13b,14,14a-dodecahydro-1-indolo[2′,3′:3,4]pyrido[1,2-b]-isoquinolin-2-ol] gave a melting point of 222 to 225 °C.

`COc1ccc(/C=C2\CC3CN4CCc5c([nH]c6ccccc56)[C@]4(C)CC3CC2=O)cc1OC` (stereo partly drawn) [Example 18, [4aR-[(E),4aα, 13bβ, 14aβ]]-3-(3,4-Dimethoxy-benzylidene)-13b-methyl-3,4,4a,5,7,8,13,13b,14,14a-decahydro-1H-indolo[2′,3′:3,4]pyrido[1,2-b]-isoquinolin-2-one]: the melting point lay in the range of 120 to 125 °C. Then `COc1cccc(/C=C2\CC3CN4CCc5c([nH]c6ccccc56)[C@]4(C)CC3CC2=O)c1` (stereo partly drawn) [Example 19, [4aR-[(E),4aα, 13bβ,14aβ]]3-(3-Methoxy-benzylidene)-13b-methyl-3,4,4a, 5,7,8,13,13b,14,14a-decahydro-1H-indolo[2′,3′:3,4]pyrido[1,2-b]-isoquinolin-2-one], with 125 to 130 °C; and `COc1cc(/C=C2\CC3CN4CCc5c([nH]c6ccccc56)[C@]4(C)CC3CC2=O)cc(OC)c1` (stereo partly drawn) [Example 20, [4aR-[(E),4aα,13bβ, 14aβ]]-3-(3,5-Dimethoxy-benzylidene)-13b-methyl-3,4,4a,5,7,8,13,13b,14,14a-decahydro-1H-indolo[2′,3′:3,4]pyrido[1,2-b]-isoquinolin-2-one], with 110 to 120 °C. Then `C[C@@]12CC3CC(=O)/C(=C/c4ccc(Cl)c(Cl)c4)CC3CN1CCc1c2[nH]c2ccccc12` (stereo partly drawn) [Example 21, [4aR-[(E),4aα,13bβ, 14aβ]]-3-(3,4-Dichloro-benzylidene)-13b-methyl-3,4,4a,5,7,8,13,13b,14,14a-decahydro-1H-indolo[2′,3′:3,4]pyrido[1,2-b]-isoquinolin-2-one], with 140 to 145 °C. For `COc1ccc(/C=C2\CC3CN4CCc5c([nH]c6ccccc56)[C@]4(C)CC3C[C@@H]2O)cc1OC` (stereo partly drawn) [Example 22, [2R-[2α(E),4aα, 13bβ, 14aβ]]-3-(3,4-Dimethoxy-benzylidene)-13b-methyl-1,2,3,4,4a,5,7,8,13,13b,14,14a-dodecahydro-indolo[2′,3′:3,4]pyrido[1,2-b]-isoquinolin-2-ol], the melting point was 118 to 121 °C.

On to `COc1cccc(/C=C2\CC3CN4CCc5c([nH]c6ccccc56)[C@]4(C)CC3C[C@@H]2O)c1` (stereo partly drawn) [Example 23], for which the melting point lay within 140 to 142 °C.

In turn, `COc1cc(/C=C2\CC3CN4CCc5c([nH]c6ccccc56)[C@]4(C)CC3C[C@@H]2O)cc(OC)c1` (stereo partly drawn) [Example 24, [2R-[2α(E),4aα,13bβ,14aβ]]-3-(3,5-Dimethoxy-benzylidene)-13b-methyl-1,2,3,4,4a,5,7,8,13,13b,14,14a-dodecahydro-indolo[2′,3′:3,4]pyrido[1,2-b]-isoquinolin-2-ol] displayed a melting point of 128 to 132 °C. Then `C[C@@]12CC3C[C@H](O)/C(=C/c4ccc(Cl)c(Cl)c4)CC3CN1CCc1c2[nH]c2ccccc12` (stereo partly drawn) [Example 25, [2R-[2α(E),4aα,13bβ, 14aβ]]-3-(3,4-Dichloro-benzylidene)-13b-methyl-1,2,3,4,4a,5,7,8,13,13b,14,14a-dodecahydro-indolo[2′,3′:3,4]pyrido[1,2-b]-isoquinolin-2-ol], with 125 to 130 °C; and `C[C@@]12CC3CC(=NO)/C(=C/c4ccccc4)CC3CN1CCc1c2[nH]c2ccccc12` (stereo partly drawn) [Example 27, [4aR-[(E),4aα,13bβ,14aβ]]-3-Benzylidene-13b-methyl-3,4,4a,5,7,8,13,13b,14,14a-decahydro-1H-indolo[2′,3′:3,4]pyrido[1 ,2-b]-isoquinolin-2-one oxime], with 142 to 145 °C.

What is called melting point is the temperature, or range, at which the solid turns liquid.
